The target of the experiment is T1, Human Polymorphonuclear Leukocyte Elastase (Homo sapiens, UniProt P08246).
T1 construct: Crude extract of human polymorphonuclear leukocytes (PMN) containing elastase activity; endogenous in cells; host or cells: human polymorphonuclear leukocytes (crude extract)
T1 sequence (P08246 30-267): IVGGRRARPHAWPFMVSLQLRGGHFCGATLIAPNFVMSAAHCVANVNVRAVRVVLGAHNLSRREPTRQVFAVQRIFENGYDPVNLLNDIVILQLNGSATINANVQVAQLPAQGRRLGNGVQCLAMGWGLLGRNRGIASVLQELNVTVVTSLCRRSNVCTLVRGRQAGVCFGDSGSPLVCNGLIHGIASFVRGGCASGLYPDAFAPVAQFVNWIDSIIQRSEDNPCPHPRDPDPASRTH
Description: Enzyme assay for inhibition of human PMN elastase via hydrolysis of Boc-AAPAN. Type of experiment: biochemical. As to conditions: % decrease in ΔOD/min at 410 mμ within 2 minutes vs control, crude PMN extract; for inhibition at 50 µg/mL: Conc. of compound 50 μg/ml. How it is done: Protocol--Enzyme Assays for the Inhibition of Human Polymorphonuclear Leukocyte Elastase Via Hydrolysis of N-t-Boc-alanyl-alanyl-prolylanaline-pnitroanilide Reagents:
0.05M TES (N-tris[hydroxymethyl]methyl-2-amino-ethanesulfonic acid) Buffer, pH 7.5.
0.2 mM N-t-Boc-alanyl-alanyl-Prolyl-Alanine-p-nitroanilide (Boc-AAPAN).
To prepare substrate, the solid (m.w. 550) was first dissolved in 10.0 ml DMSO. Buffer at pH 7.5 was then added to a final volume of 100 ml.
Crude extract of human polymorphonuclear leukocytes (PMN) containing elastase activity.
Inhibitors (cephalosporins) to be tested dissolved in DMSO just before use.
To 1.0 ml of 0.2 mM Boc-AAPAN in a cuvette, 0.01-0.1 ml of DMSO with or without inhibitor was added. After mixing, a measurement was taken at 410 mμ to detect any spontaneous hydrolysis due to presence of test compound. 0.05 Milliliters of PMN extract was then added and the ΔOD/min at 410 mμ was measured and recorded. Beckman model 35 spectrophotometer was used.
The elastase activity in the crude PMN extract may vary from one preparation to another. A control of each new batch is run, and the volume added in the assay procedure is adjusted according to activity.

The structures appear in SMILES notation.

The inhibition is the change of the read-out against control, counted positive when it falls.

Regarding `CO[C@@]1(NC(=O)CSCC#N)C(=O)N2C(C(=O)OCOC(=O)C(C)(C)C)=C(CSc3nnnn3C)CSC21` (some centres unmarked), the inhibition at 50 µg/mL turned out to be 81%. The compound also had an inhibition at 5 µg/mL (Conc. of compound 5 μg/ml) of 41%. For the setting “Conc. of compound 10 μg/ml”, this compound showed an inhibition at 10 µg/mL of 53%. The compound further registered an inhibition at 25 µg/mL (Conc. of compound 25 μg/ml) of 78%.
Consider `COC1(NC(=O)CSCC#N)C(=O)N2C(C(=O)OC3OC(=O)c4ccccc43)=C(CSc3nnnn3C)CSC21` (centres unmarked), for which the inhibition at 50 µg/mL turned out to be 41%.
Regarding `COC1(NC(=O)Cc2cccs2)C(=O)N2C(C(=O)OCC(=O)COC(=O)C(C)(C)C)=C(COC(N)=O)CSC21` (centres unmarked), 50 µg/mL produced 37% inhibition.
The same measure, in the same setting: under `C=CCCOC(=O)C1=C(COC(N)=O)CSC2N1C(=O)C2(NC(=O)Cc1cccs1)OC` (centres unmarked) stands 50%.
Compound `C=CCCOC(=O)C1=C(COC(C)=O)CSC2C(NC(=O)Cc3cccs3)C(=O)N12` (centres unmarked) had an inhibition at 50 µg/mL of 56%.

Values taken from patent publication US4891370A, “Cephalosporin derivatives as anti-inflammatory agents” (Merck & Co., Inc., priority 1981, dated 1990).
